Laboratory results taken from patent publication US9250231B2, “Method for selecting mevalonate synthesis modulators using cells derived from human pluripotent cells” (Centre d'Etude des Cellules Souches, priority 2010, dated 2016).

Columns and labels:
[1] = test system: SSEA4; assay: Flow cytometry of SSEA4 on MSC type cells derived from hES SA01; assay type: cell-based, human; settings: added to control FCS20%; FGF2 10 ng/ml, AA2P 1 mM; control 7
Procedure: (§1) The role of FGF2 and of ascorbic acid 2-phosphate on the growth capacities of the isolated cells according to the method of the invention was analyzed on cells derived from human embryonic stem cells SA01. The cells are cultivated in the presence of 20% fetal calf serum (control condition) and in the presence or in the absence of FGF2 and of ascorbic acid 2-phosphate (AA2P).
The presence of SSEA4 on cells cultivated under these different conditions were analyzed by flow cytometry by using a specific antibody directed against SSEA4.

[2] = test system: cells derived from human embryonic stem cells SA01; assay: Growth capacity (maximum number of cells before senescence) of MSC type cells cultivated with or without FGF2 and AA2P; assay type: cell-based; settings: versus control FCS20%
Procedure: as §1

[3] = test system: <<MSC>> SA01 cells derived from hES cells (SA01); assay: Comparative toxicity of statins in 384-well plates, Cell Titer Glow, with and without mevalonate; assay type: cell-based, human; settings: for cell viability as percentage of the result without any treatment, With Mevalonate / cell viability as percentage of the result without any treatment, Without Mevalonate: human, 72 h
Procedure: For this experiment, the differentiated <<MSC>> SA01 cells derived from hES cells (SA01) were tested in 384-well plates by using a distribution robot and cell viability was measured by Cell Titer Glow after 72 hours of cultivation.

[4] = test system: <<MSC>> WT cells derived from hES cells; assay: Toxicity of simvastatin in 384-well multiwells, Cell Titer Glow; assay type: cell-based, human; settings: 72 hours, 20% fetal calf serum, 2,000 cells per well, DMSO 0.2% 987206
Text: Determination of the number of cells by the ATP amount is therefore possible. This approach allows automated readout of the number of cells. Similar results are obtained by using traces of mitochondrial activity. Differentiated cells of the MSC type, derived from hES cells, <<MSC>> WT, were sown on 384 multiwells gelatinized beforehand by using a distribution robot of the Bravo type, at the concentration of 2,000 cells per well.

[5] = test system: MSC cells derived from hES human cells SA01; assay: Prestwick bank screening with and without mevalonate, Cell Titer Glow; assay type: cell-based; settings: 2.5 μM, 72 h, mevalonate 2 mM, 96 wells, 20% fetal calf serum

Compound | Average fluorescence intensity (SSEA4) [1] | increase of the amount of accumulated maximum cells [2] | cell viability as percentage of the result without any treatment, With Mevalonate [3] [%] | cell viability as percentage of the result without any treatment, Without Mevalonate [3] [%] | further results
FGF2: growth factor from the FGF family added to the culture medium | 10 | less than 5 log factor | – | – | –
CC(C)n1c(/C=C/C(O)CC(O)CC(=O)O)c(-c2ccc(F)cc2)c2ccccc21 (centres unmarked) [Fluvostatin] | – | – | 104 | 32.8 | comparative toxicity of statins [3]: more toxic than simvastatin
O=C1O[C@H]([C@@H](O)CO)C(O)=C1OP(=O)(O)O [AA2P, Ascorbic Acid 2-Phosphate] | 7 | less than 6 log factor | – | – | –
CCC(C)(C)C(=O)O[C@H]1C[C@@H](C)C=C2C=C[C@H](C)[C@H](CC[C@@H]3C[C@@H](O)CC(=O)O3)[C@H]21 [Simvastatin] | – | – | 98.3 | 48.7 | amount of cells by Cell Titer Glow, Statin 2 μM [4]: 474583
Mevinolin | – | – | – | – | selected in screening 1 (toxicity of more than 35% in the absence, less than 20% in the presence of mevalonate) [5]: isolated
